Test system: genital area of the patient
Assay: Short term effect of the topical formulation applied to the genital area, as reported by users
Assay type: in vivo, human
Details: for somewhat improved sexual function continuing after use: middle-aged male, component of the formula; for functionality as component of the topical formulation: forms of coQ10 added to the formulation
From the text: The following examples are used to show the short term effect of the topical formulation when applied to the genital area of the patient.

Structure (SMILES)	period for which the effects of the topical formulation are prolonged following administration (ATP included in second core composition) [h]	somewhat improved sexual function continuing after use	functionality as component of the topical formulation
Nc1ncnc2c1ncn2[C@@H]1O[C@H](COP(=O)(O)OP(=O)(O)OP(=O)(O)O)[C@@H](O)[C@H]1O [ATP, adenosine triphosphate]	~12	about 10 hours	–
NC(=O)c1ccc[n+]([C@@H]2O[C@H](CO)[C@@H](O)[C@H]2O)c1 [nicotinamide ribose, nicotinamide riboside]	–	about 10 hours	–
COc1c(O)c(C)c(C/C=C(\C)CC/C=C(\C)CC/C=C(\C)CC/C=C(\C)CC/C=C(\C)CC/C=C(\C)CC/C=C(\C)CC/C=C(\C)CC/C=C(\C)CCC=C(C)C)c(O)c1OC [ubiquinol, reference compound]	–	–	seems not functional
COC1=C(OC)C(=O)C(C/C=C(\C)CC/C=C(\C)CC/C=C(\C)CC/C=C(\C)CC/C=C(\C)CC/C=C(\C)CC/C=C(\C)CC/C=C(\C)CC/C=C(\C)CCC=C(C)C)=C(C)C1=O [ubiquinone, reference compound]	–	–	seems not functional

— US20170105986A1, “Topical Formulation to Enhance Genital Sensation and Function” (priority 2014, published 2017)
